# Assay results from the supplement of paper PMC8967900.
# Tests used:
# Assay in all cases: selective drug sensitivity score (sDSS, relative to normal bone marrow) (sDSS (score)); higher = more potent and effective on the cell line relative to normal bone marrow cells
# Conditions in all cases: 72 h
# NALL-1 = tested on: NALL-1
# PEER = tested on: PEER
# TMD5 = tested on: TMD5
# MOLT-14 = tested on: MOLT-14
# ALL-PO = tested on: ALL-PO
# 697 = tested on: 697
# MN-60 = tested on: MN-60
# ALL-SIL = tested on: ALL-SIL
# MOLT-4 = tested on: MOLT-4
# COG-LL-394h = tested on: COG-LL-394h
# KARPAS-45 = tested on: KARPAS-45
# MHH-CALL-2 = tested on: MHH-CALL-2
# MHH-CALL-4 = tested on: MHH-CALL-4
# RPMI-8402 = tested on: RPMI-8402
# CCRF-CEM = tested on: CCRF-CEM
# MOLT-16 = tested on: MOLT-16
# KOPN-8 = tested on: KOPN-8
# P12-ICHIKAWA = tested on: P12-ICHIKAWA
# SEM cells = tested on: SEM cells
# LC4-1 = tested on: LC4-1
# 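Note: ALL cell lines in 384-well plates, five doses spanning 10,000-fold, each plate scaled between vehicle and 100 µmol/L benzalkonium chloride controls, sDSS an adapted area-under-curve metric.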
SMILES,selective drug sensitivity score (NALL-1),selective drug sensitivity score (PEER),selective drug sensitivity score (TMD5),selective drug sensitivity score (MOLT-14),selective drug sensitivity score (ALL-PO),selective drug sensitivity score 697,selective drug sensitivity score (MN-60),selective drug sensitivity score (ALL-SIL),selective drug sensitivity score (MOLT-4),selective drug sensitivity score (COG-LL-394h),selective drug sensitivity score (KARPAS-45),selective drug sensitivity score (MHH-CALL-2),selective drug sensitivity score (MHH-CALL-4),selective drug sensitivity score (RPMI-8402),selective drug sensitivity score (CCRF-CEM),selective drug sensitivity score (MOLT-16),selective drug sensitivity score (KOPN-8),selective drug sensitivity score (P12-ICHIKAWA),selective drug sensitivity score (SEM cells),selective drug sensitivity score (LC4-1)
CC(=O)[C@]1(O)Cc2c(O)c3c(c(O)c2[C@@H](O[C@H]2C[C@H](N)[C@H](O)[C@H](C)O2)C1)C(=O)c1ccccc1C3=O [Idarubicin] (top concentration 1000 nM),-3.66,-4.86,1.94,10.5,1.64,8.84,-2.26,4.64,7.74,7.94,-2.36,8.04,7.64,10.5,8.84,15.9,8.74,8.24,6.74,4.04
COc1cc2nccc(Oc3ccc(NC(=O)NC4CC4)c(Cl)c3)c2cc1C(N)=O [Lenvatinib] (top concentration 2500 nM),-0.24,2.26,0.66,-0.14,3.86,2.16,-0.24,5.56,0.36,0.26,0.16,1.46,-0.24,-0.24,0.16,-0.04,0.86,-0.24,0.36,-0.24
N#Cc1ccc(C(c2ccc(C#N)cc2)n2cncn2)cc1 [Letrozole] (top concentration 10000 nM),-0.04,-0.04,-0.04,-0.04,-0.04,-0.04,-0.04,-0.04,-0.04,-0.04,-0.04,-0.04,-0.04,-0.04,-0.04,-0.04,-0.04,-0.04,-0.04,-0.04
CCNCCS(=O)(=O)NC[C@@]1(c2ccccc2)SC(NC(=O)C(C)(C)C)=NN1C(=O)C(C)(C)C [Litronesib] (top concentration 1000 nM),10.9,21.4,9.64,20.7,14.8,20.9,4.64,19.2,13.8,7.74,21.9,15.6,8.54,18.7,19.8,20.2,20.6,18.5,20.5,19.8
CC[C@H](C)C(=O)O[C@H]1C[C@@H](C)C=C2C=C[C@H](C)[C@H](CC[C@@H]3C[C@@H](O)CC(=O)O3)[C@H]21 [Lovastatin] (top concentration 10000 nM),-0.1,1.2,-0.1,-0.1,-0.1,0.1,-0.1,0.9,-0.1,-0.1,3,8.7,-0.1,1.8,0,1.7,4.3,1.4,5,0.8
Cn1cc(-c2cnn3c(N)c(Br)c([C@@H]4CCCNC4)nc23)cn1 [MK-8776] (top concentration 2500 nM),-1.46,-0.26,-1.46,-1.26,4.44,1.54,-1.46,2.04,-1.46,-0.96,0.34,2.54,-0.46,1.44,1.04,1.44,-0.46,-0.36,2.64,0.54
Cc1cnc(-c2ccccc2C(C)C)nc1NCc1ccc(-n2ccnn2)cc1 [ML323] (top concentration 10000 nM),0.14,4.24,-0.26,1.94,3.14,3.54,0.04,2.64,1.34,3.64,4.64,0.24,-0.36,3.44,0.44,3.04,1.14,1.74,1.14,0.54
O=C(CCNC(=O)c1ccc(OC(F)(F)F)cc1)N[C@@H]1CCCc2ccccc21 [ML390] (top concentration 50000 nM),-1.2,5.5,-1.2,16.6,5.3,16.4,16.8,2,15.2,-1.2,7.1,4.1,1.8,12.6,9.3,20.8,22.3,18.5,10.8,7.4
CN(C)C(=N)NC(=N)N [Metformin] (top concentration 100000 nM),-0.02,-0.02,-0.02,-0.02,-0.02,-0.02,-0.02,-0.02,-0.02,-0.02,-0.02,0.58,-0.02,-0.02,-0.02,-0.02,-0.02,-0.02,-0.02,-0.02
C[C@H]1C[C@@H]2[C@H]([C@@H](O)C[C@@]3(C)[C@H]2CC[C@]3(O)C(=O)CO)[C@@]2(C)C=CC(=O)C=C12 [Methylprednisolone] (top concentration 10000 nM),24.8,-1.5,15,-2.3,34.1,22.3,-1.5,10.9,-2.3,-2.3,16.4,26.5,31.6,-2.1,6.4,7.9,21.1,19.8,7.9,5.9
FC(F)(F)c1ccc(/C=C/c2nc(COc3ccc(CCCCn4ccnn4)cc3)co2)cc1 [Mubritinib] (top concentration 1000 nM),-2.24,21.7,0.26,4.46,6.16,15.5,17.6,8.66,19.6,16.2,11.6,4.76,3.46,22.5,6.06,18.6,7.76,20.7,6.56,4.86
COc1cc2c(cc1OC(C)C)[C@H](c1ccc(Cl)cc1)N(c1ccc(N(C)C[C@H]3CC[C@H](N4CCN(C)C(=O)C4)CC3)cc1)C(=O)C2 [NVP-CGM097] (top concentration 25000 nM),-6.34,-2.14,7.86,8.36,-3.84,7.86,-0.44,-6.74,11.8,6.56,-3.94,10.8,7.06,-4.64,-4.24,10.4,10.4,-5.64,-4.84,10.1
CCOc1cc2ncc(C#N)c(Nc3ccc(OCc4ccccn4)c(Cl)c3)c2cc1NC(=O)/C=C/CN(C)C [Neratinib] (top concentration 1000 nM),-0.32,2.88,-0.52,4.28,5.28,6.28,0.38,1.08,1.38,5.48,2.28,2.58,-0.22,3.08,2.48,1.98,2.28,1.28,1.28,3.58
COc1ncc(-c2ccc3nccc(-c4ccnnc4)c3c2)cc1NS(=O)(=O)c1ccc(F)cc1F [Omipalisib] (top concentration 1000 nM),4.5,-3,-2.2,-2.2,21.9,11.9,8.9,4.6,14,-1.1,9.4,11,13.1,10.9,12,10,15.1,4,9.4,1.6
CN1CCN(c2cc(C(=O)Nc3ccc4c(c3)-c3c(c(C(N)=O)nn3-c3ccc(F)cc3)CC4)c(Cl)cn2)CC1 [PHA-408] (top concentration 10000 nM),-0.82,3.18,-1.22,-0.22,0.78,0.78,-4.12,2.58,0.58,-1.22,0.98,1.58,2.18,1.88,0.48,1.28,3.88,-0.02,-2.02,3.98
OC[C@H]1O[C@@H](n2cnc3c2N=CNC[C@H]3O)C[C@@H]1O [Pentostatin] (top concentration 10000 nM),-0.44,-0.44,-0.24,-0.24,-0.44,-0.44,-0.44,-0.44,-0.44,-0.44,-0.14,-0.44,-0.44,-0.44,-0.34,-0.34,-0.14,-0.44,-0.44,-0.44
CC(C)N(C[C@H]1O[C@@H](n2cnc3c(N)ncnc32)[C@H](O)[C@@H]1O)[C@H]1C[C@@H](CCc2nc3cc(C(C)(C)C)ccc3[nH]2)C1 [Pinometostat] (top concentration 1000 nM),0,0,0,0,0,0,0.3,0.2,0,0,0,0,0,0,0,0,0,0,0,0
Cc1ccc(=O)n(-c2ccccc2)c1 [Pirfenidone] (top concentration 10000 nM),0,0,0,0,0,0,0,0,0,0,0,0,0,0,0,0,0,0,0,0
